Measurements published in patent publication US8466311B2, “Neuroprotective compositions and methods” (Sanford-Burnham Medical Research Institute, priority 2006, dated 2013).

Columns and labels:
[1] = test system: phase 2 genes (GCL-L, GCL-H, HO-1, NQO1); assay: Phase 2 gene induction in PC12h cells (RT-PCR); format: cell-based; conditions: 10 μM CA, 6-24 h
Description: RT-PCR. In order to examine phase 2 gene induction by CA in PC12h cells and brain lysates, RT-PCR of total RNA from cortical cultures was performed using the following primer pairs (Hosoya et al., J. Bioi. Chern. 29:27244-27250, 2005; Kobayashi et al., Mol. Cell. Biol. 26:221-229, 2006): CypA (89 bp), 5′-ACAGGTCCTGGCATCTTGTC-3′ (SEQ ID NO: 18)(sense) and 5′-[…] -3′ (SEQ ID NO: 19)(antisense); H0-1 (284 bp), 5′-CAGTCGCCTCCAGAGTTTCC -3′ (SEQ ID NO: 20)(sense) and 5′- TACAAGGAGGCCATCACCAGC-3′ (SEQ ID NO: 21)(antisense); GCL-M (280 bp), 5′- CTGCTAAACTGTTCATTGTAGG-3′ (SEQ ID NO: 22)(sense) and 5′- CTA TTG GGT TIT ACC TGT G-3′ (SEQ ID NO: 23)(antisense); GCL-C (213 bp), 5′- GTC TIC AGG TGA ACA TIC CAA GC-3′ (SEQ ID NO: 24)(sense) and 5′- TGTTCTTCAGGGGCTCCAGTC-3′ (SEQ 10 NO: 25)(antisense); and NQO1 (212 bp), 5′- GTG TAC AGC ATI GGC CAC AC-3′ (SEQ 10 NO: 26)(sense) and 5′AAATGATGGCCCACAGAAAG-3′ (SEQ ID NO: 27)(antisense).
Phase 2 enzymes represent an important effector activated by electrophilic-induction of the Keap1/Nrf2 pathway. In order to detect induction of the phase 2 enzymes γ-GCL light chain (GCL-L), γ-GCL heavy chain (GCL-H), HO-1, and NQO1, we performed RT-PCR using mRNA of PC12h cells pretreated with 10 μM CA. The cyclophilin A (CYPA) gene was used as an internal positive control.

[2] = test system: ARE core element; assay: ARE core element luciferase reporter (pAREluc) in HT22 cells; format: cell-based
Description: (§1) Cell cultures, transfection, and glutathione (GSH) measurement. […] Transfection was performed with Lipofectamine 2000 (Invitrogen). In the reporter gene assays, firefly luciferase activity in cell lysates was measured with a luminometer (Promega). Total GSH (reduced and oxidized) was determined as described (Lee et al., Biochem. Biophys. Res. Commun. 280:286-292, 2001).
The E1 and E2 enhancer sites in the H0-1 promoter each contain an ARE. […] Biol. 24:36-45, 2004; Gong et al., Antioxid. Redox Signal. 4:249-257, 2002). Because NEPP compounds have an electrophilic carbon at position #11 and can bind cysteine residues of cellular proteins, we studied this pathway of ARE activation. To provide direct evidence that NEPP11 could activate the H0-1 enhancer through an ARE, we studied transcriptional activation of a wild-type ARE core element (pAREluc) and a mutated form (pGC-AREIuc) (Lee et al., Biochem, Biophys. Res. Commun. 280:286-292, 2001). cDNA constructs represented wild-type
(Kraft et al., J. Neurosci. 24:1101-1112, 2004).

[3] = test system: HO-1 protein; assay: HO-1 induction in mouse brain after i.p. injection; format: in vivo; conditions: NEPP11 i.p. 12 h before killing
Description: To test the hypothesis that NEPP protection against brain ischemia is associated with HO-1 expression, we examined HO-1 induction by Western blotting and immunostaining. NEPP11 or vehicle was injected intraperitoneally (i.p.) 12 h before the animals were killed. Brain lysates (10 μg per lane) were extracted and subjected to Western blotting with anti-HO-1 and anti-β-actin antibody. For immunostaining, coronal sections of mouse brain were stained with anti-MAP-2 and anti-HO-1 antibodies.

[4] = test system: HO-1 promoter; assay: HO-1 promoter luciferase reporter (pHO15luc) in HT22 cells; format: cell-based, mouse
Description: as §1
NEPPs activate HO-1 transcription through the ARE. We next studied activation of the HO-1 promoter and ARE by NEPP. In order to examine the induction of HO-1 protein by NEPP11, various concentrations of NEPP11 were added to HT22 cells for 24 h. Thereafter, cell lysates (10 μg per lane) were subjected to SDS-PAGE and probed with anti-HO-1 or anti-β-actin. […] Next, we studied transcriptional activation of the HO-1 gene by NEPP11 in HT22 cells, a differentiated neuronal cell line, transfected with pHO15luc, a luciferase reporter construct under the control of a 15-kb mouse HO-1 promoter fragment. HT22 cells were transfected with reporter cDNAs (1 μg per well), and various concentrations of NEPP11 were added to the cultures. After a 24-h incubation, cell lysates were subjected to luciferase reporter assays. […] Gong et al. (Antioxid. Redox Signal. 4:249-257, 2002) had identified two enhancer regions, E1 and E2, located upstream of the transcriptin initiation site by approximately 4 and 10 kb that contained the elements responsible for activation by 15-deoxy-Δ^12,14-PGJ2 (Gong et al., Antioxid. Redox Signal. 4:249-257, 2002). To determine the role of the E1 and E2 enhancers, we expressed a mutant promoter construct lacking both enhancer sites [pHO15lucΔ(E1+E2)]. The mutant was only minimally responsive to NEPP11 (1.8-fold induction).
Because the E1 and E2 regions also contain other enhancer elements, we tested the effects of NEPP11 (2 μM) on the expression of luciferase activity derived from these elements, including the cAMP-responsive element (CRE; p3xCREluc), AP-1 binding site (p3xAP1luc), NF-κB binding site (p3xNF-κBluc), NFAT-binding site (p3xNFATluc), ETS-binding site (p3xETSluc), and MEF2-binding site (p3xMEF2luc).

Compound	induction of phase 2 genes [1]	mutant ARE (pGC-AREluc) transcriptional activity [2]	wild-type ARE (pAREluc) transcriptional activity ([2]; dose-dependent)	level of HO-1 protein in the brain [3]	expression of HO-1 transcription (pHO15luc luciferase activity) ([4]; HT22 cells, 24 h, dose-dependent)	induction of mutant promoter pHO15lucΔ(E1+E2) ([4]; HT22 cells, construct lacking E1 and E2 enhancers) [fold]	induction of pHO15luc reporter activity ([4]; NEPP11 2 μM, used for comparison)	activation of pHO15luc with co-transfection of pKeap1(C151S) ([4]; not depressed by wild-type pKeap1)
CC(C)c1cc2c(c(O)c1O)[C@@]1(C(=O)O)CCCC(C)(C)[C@@H]1CC2 [CA, carnosic acid]	All of the phase 2 genes were induced	–	–	–	–	–	–	–
COC(=O)CCCCC/C=C1/C(=O)C=C[C@H]1CCCCCCc1ccc(C)cc1 [NEPP11]	–	unaffected	up to seven-fold	increased	more than five-fold	1.8	greater than five-fold	significantly depressed
